Experimental data taken from patent publication US10723744B2, “Transplantation therapies” (Aphios Corporation, priority 2007, dated 2020).
“Also recorded” adds a separate entry of the source.

Columns and labels:
T84 intestinal epithelia = conditions: cited from earlier work
[1] = system: PKC-ε siRNA nucleofected HUVEC; experiment: LTB4 induced neutrophil migration across PKC-ε siRNA nucleofected HUVEC; format: cell-based, human; conditions: 1 hour pretreatment
Protocol: (§1) HUVECs were pretreated with Go-6983 (1, 10, 100 nM), or Go-6976 (1, 10, 100 nM) for 30 minutes, then spiked with 100 nM Bryostatin-1 for 1 hour. HUVECs previously nucleofected with PKC-δ, -ε, or control siRNA were just treated in Bryostatin-1 for 1 hour. HUVECs were washed three times and placed in a new plate containing either 500 μL 100 nM LTB4, or HBSS alone for control. Neutrophils were allowed to migrate for 3 h at 37° C. Migration was stopped by removing the inserts and migration was measured using the MPO assay.
(§2) Neutrophil migration was measured using myeloperoxidase (MPO) analysis. Cell culture inserts were first removed and plates were spun at 1,500 RPM for 5 min. The supernatant was removed, and MPO activity was measured using TMB/peroxide as chromogen. The reaction was stopped with sulfuric acid and absorbance was read at 450 nm using a microplate reader. All experiments were performed n=6. Data was expressed as “% neutrophil migration”, which allowed cumulative statistical analysis to be done and account for unpreventable batch-to-batch variations.
(§3) Optimum nucleofection parameters were determined using nucleofection of a control vector pmaxGFP. Using fluorescence microscopy and flow cytometry, 2 μg vector/500,000 cells nucleofected yielded the highest nucleofection (data not shown). HUVECs were grown to 70% confluency, trypsinized, and then counted. […]

HUVECs [2] = experiment: Neutrophil TEM restoration studies with PKC inhibitors; format: cell-based, human; conditions: HUVEC; for restoration of PMN TEM in response to LTB4 by PKC inhibitors (reversal of Bryostatin-1 protection): inhibitor pretreatment (Go-6983, Go-6976: 1, 10, 100 nM), then 100 nM Bryostatin-1
Protocol: as §1, §2

HUVECs [3] = experiment: Time course of protection against LTB4 induced PMN TEM after 1 h pretreatment, HUVECs; format: cell-based, human; conditions: single 1 h 100 nM pretreatment
Protocol: (§4) At confluency, HUVECs were treated for 1 h at 37° C. with Bryostatin-1 (10 nM, 100 nM) in EGM or EGM alone. Inserts were washed three times with HBSS (to reduce drug effects on the neutrophils) and migration assays were ran at t=0, 24, or 48 h. After time elapsed, HUVECs were placed in a new plate containing either 500 μL 100 nM LTB4 or HBSS alone for control. 500 μL HBSS was then added to the top well and spiked with 500,000 neutrophils. Neutrophils were allowed to migrate for 3 h at 37° C. Migration was stopped by removing the inserts and migration was measured using the MPO assay.
as §2

HUVEC = experiment: Alamar blue endothelial viability assay, HUVEC; format: cell-based, human; conditions: single 1 h 100 nM treatment; time points 1, 24, 48 h (PMA: except 48 h)
Protocol: (§5) The Alamar blue assay was used to determine endothelial viability after pharmacological intervention. Alamar blue contains a REDOX indicator that results in a color change upon chemical reduction by cellular metabolic activity. Endothelial cells were treated with Bryostatin-1 (100 nM) for 1 h and washed three times with HBSS. Alamar blue (10%) in media was added for 2.5 h at T=0, 24, or 48 hours after drug treatment and the ratio of absorbances (570-600 nm) was measured to determine metabolic activity.

HMECs [4] = experiment: Time course of protection against LTB4 induced PMN TEM after 1 h pretreatment, HMECs; format: cell-based, human; conditions: for time after pretreatment for which reduction in LTB4 induced migration is maintained: single 1 h 100 nM pretreatment
Protocol: FIG. 6 graphically depicts protection against LTB4 induced PMN TEM with PMA up to 48 h after pretreatment. HMECs were pretreated for 1 h with PMA and washed with HBSS three times to remove PMA prior to replacement of culture medium. Neutrophil migration studies were then performed at 0, 24, or 48 hours. Migration was stimulated by adding 500,000 neutrophils to the top well and 100 nM LTB4 to the lower well at 0, 24, and 48 hours after PMA pretreatment. […] PMA (100 nM, (10^−7M) reduced LTB4 induced migration up to 48 hours after 1 h of endothelial-specific pretreatment (***p<0.001).
Referring now to FIG. 7, FIG. 7 graphically depicts protection from LTB4 induced PMN TEM with Bryostatin-1 up to 48 hours after pretreatment. HMECs were pretreated for 1 h with Bryostatin-1 and washed with HBSS three times to remove Bryostatin-1 prior to replacement of culture medium. Neutrophil migration studies were then performed at 0, 24, or 48 hours. Migration was stimulated by adding 500,000 neutrophils to the top well and 100 nM LTB4 to the lower well at 0, 24, and 48 hours after Bryostatin-1 pretreatment. […] Bryostatin-1 (100 nM) reduced LTB4 induced migration up to 48 hours after 1 hour endothelial pretreatment (***p<0.001).
as §4, §2

HMEC monolayers = experiment: LTB4 induced neutrophil adhesion to the endothelial monolayer; format: cell-based, human; conditions: data not shown
Protocol: (§6) Confluent HMEC monolayers were plated on 48-well plates for adhesion studies, transwells for migration studies, and pretreated with a variety of pharmacological inhibitors and activators for 1 hour. Monolayers were washed three times with HBSS to remove all drug effects on the endothelium. To initiate migration, 100 nM LTB4 was added to the lower compartment and 500,000 neutrophils were added to the upper compartment and allowed to migrate for 3 h. For adhesion assays, LTB4 was added along with 500,000 neutrophils and allowed to adhere for 1 h (time of max. adhesion as determined in FIG. 1). […] The data are shown as % change in migration and adhesion as assessed by MPO assay. All values are expressed as means±SE. Data were analyzed using a one-way ANOVA with Bonferroni corrections for multiple comparisons. Probability (p) values of <0.05 were considered significant. ***p<0.001 vs. LTB4; **p<0.01 vs. LTB4; **p<0.05 vs. LTB4; n=4 for all experiments.

HMECs [5] = format: cell-based, human
Protocol: (§7) At confluency HMECs were treated for 1 h at 37° C. with Bryostatin-1 (10 nM, 100 nM) in MCDB-131 media or MCDB-131 media alone. Inserts were washed three times with Hank's Balanced Salt Solution (HBSS) (to eliminate drug effects on the neutrophils) and placed in a new plate containing either 500 μL 100 nM LTB4, or HBSS alone for control. 500 μL HBSS was then added to the top well and spiked with 500,000 neutrophils. For TNF-α experiments, HMECs were left in 20 ng/ml TNF-α in MCDB-131 for 24 h TNF-α was removed and HMECs washed three times. HMECs were treated for 1 h with Bryostatin-1 in endothelial growth medium (EGM) (10 nM, 100 nM). The drug was removed and cells were washed three times. 500 μL HBSS was added to both upper and lower chambers and spiked with 500,000 neutrophils. Neutrophils were allowed to migrate for 3 h at 37° C. Migration was stopped by removing the inserts and migration was measured using the myeloperoxidase (MPO) assay.
as §2

[6] = cited from earlier work
HMECs [7] = experiment: LTB4 induced neutrophil migration across HMEC monolayers (transwell, MPO assay); format: cell-based, human; conditions: 100 nM LTB4
Protocol: as §7, §2, §6

HMEC = experiment: Alamar blue endothelial viability assay, HMEC; format: cell-based, human; conditions: single 1 h 100 nM treatment; time points 1, 24, 48 h
Protocol: as §5

[8] = system: PKC-δ siRNA nucleofected HUVEC; experiment: LTB4 induced neutrophil migration across PKC-δ siRNA nucleofected HUVEC; format: cell-based, human; conditions: 100 nM, 1 hour
Protocol: as §1, §2, §3

Structure (SMILES): CCC/C=C/C=C/C(=O)O[C@H]1/C(=C/C(=O)OC)C[C@H]2C[C@H]([C@@H](C)O)OC(=O)C[C@H](O)C[C@@H]3C[C@H](OC(C)=O)C(C)(C)[C@](O)(C[C@@H]4C/C(=C/C(=O)OC)C[C@H](/C=C/C(C)(C)[C@]1(O)O2)O4)O3 [Bryostatin-1]
- barrier function (T84 intestinal epithelia): enhances barrier function
- barrier loss induced by TNF-α (T84 intestinal epithelia): inhibits barrier loss
- LTB4 induced neutrophil migration after pretreatment, PKC-ε knocked down [1]: did not restore LTB4 induced migration; also recorded: still suppresses migration
- LTB4 induced neutrophil migration (HUVECs [2]; 100 nM Bryostatin-1, 1 hour, 100 nM LTB4, 3 h): reversed; also recorded: significantly suppressed LTB4 induced migration
- time after pretreatment for which reduction in LTB4 induced migration is maintained (HUVECs [3]): 48 h
- HUVEC viability (HUVEC): no effect
- time after pretreatment up to which LTB4 induced migration is reduced (HMECs [4]; 100 nM, 1 h pretreatment, washed, tested at 0, 24, 48 hours): up to 48 hours
- time after pretreatment for which reduction in LTB4 induced migration is maintained (HMECs [4]): at least 48 h
- time after pretreatment for which reduction in LTB4 induced migration is maintained (HMECs [4]; listed as Bryostatin): 48 h
- LTB4 induced adhesion to the endothelial monolayer (HMEC monolayers): Neither PMA, nor Bryostatin-1 reduced LTB4 induced adhesion
- migration induced by a combination of TNF-α pretreatment and LTB4 gradient (HMECs [5]; 24 h TNF-α pretreatment and 100 nM LTB4 gradient, data not shown): reduced migration
- TNF-α induced neutrophil TEM (Type II migration) (HMECs [5]; HMECs, 24 h TNF-α 10 or 20 ng/ml, 1 hour pretreatment with 100 nM): attenuated Type II migration; also recorded: totally attenuated
- cardiovascular disturbances or edema ([6]; Phase II cancer trials): no cardiovascular disturbances or evidence of edema have been observed
- major side effects associated with use ([6]; Phase II cancer trials): myalgias, nausea, and vomiting
- adverse effects ([6]; healthy subjects and cancer patients, dosing ranges higher than for 100 ng/ml plasma level): no adverse effects
- LTB4 induced neutrophil migration (HMECs [7]; HMECs on transwells, 1 h pretreatment 100 nM or 10 nM (PMA: 100, 10 or 1 nM), 3 h): reduced LTB4 induced migration in a dose dependent manner
- LTB4 induced neutrophil migration (PMN TEM) (HMECs [7]; HMECs, 1 h pretreatment at 1 nM): did not reduce PMN TEM
- LTB4 induced neutrophil TEM (HMECs [7]; HMECs, 1 h pretreatment, higher doses (100 nM)): attenuated neutrophil TEM to levels below that of basal migration
- HMEC viability (HMEC): no effect
- LTB4 induced neutrophil migration after pretreatment, PKC-δ knocked down [8]: restored the normal level of neutrophil trans endothelial migration

Structure (SMILES): CN(C)CCCn1cc(C2=C(c3c[nH]c4ccccc34)C(=O)NC2=O)c2ccccc21 [GF10923X]
- restoration of PMN TEM in response to LTB4 by PKC inhibitors (reversal of Bryostatin-1 protection) (HUVECs [2]): did not restore PMN TEM

Structure (SMILES): Cn1c2ccccc2c2c3c(c4c5ccccc5n(CCC#N)c4c21)CNC3=O [GO-6976]
- restoration of PMN TEM in response to LTB4 by PKC inhibitors (reversal of Bryostatin-1 protection) (HUVECs [2]): did not restore PMN TEM

Structure (SMILES): COc1ccc2c(c1)c(C1=C(c3c[nH]c4ccccc34)C(=O)NC1=O)cn2CCCN(C)C [Go-6983]
- Bryostatin-1 mediated reduction in migration towards LTB4, effect of PKC inhibitor pretreatment (HUVECs [2]; inhibitor 10 or 100 nM, 30 minutes before 100 nM Bryostatin-1): prevented
- restoration of PMN TEM in response to LTB4 by PKC inhibitors (reversal of Bryostatin-1 protection) (HUVECs [2]): dose dependently restored neutrophil migration
- restoration of PMN TEM in response to LTB4 by PKC inhibitors (reversal of Bryostatin-1 protection) (HUVECs [2]; listed as G0-6983): dose dependently reversed

Structure (SMILES): CC(=O)c1c(O)c(C)c(O)c(Cc2c(O)c3c(c(C(=O)/C=C/c4ccccc4)c2O)OC(C)(C)C=C3)c1O [Rottlerin]
- restoration of PMN TEM in response to LTB4 by PKC inhibitors (reversal of Bryostatin-1 protection) (HUVECs [2]): did not restore PMN TEM
